Measured values from the NIST ThermoML archive (doi:10.1021/je900550v).
Numbers after ± are expanded uncertainties.

Conditions: 101.33 kPa, Liquid; for speed of sound: Pulse-echo method; for mass density: Vibrating tube method

C[NH2+]CCO.O=C[O-] [2-hydroxy-N-methylethanaminium formate]
Conditions	mass density [kg/m3]	speed of sound [m/s]	viscosity [mPa·s]
308.15 K	1122.67 ± 2.2	1795.8 ± 2.2	13.73
308.4 K	1122.53 ± 2.2	1795.4 ± 2.2	–
308.65 K	1122.39 ± 2.2	1794.9 ± 2.2	–
308.9 K	1122.25 ± 2.2	1794.4 ± 2.2	–
309.15 K	1122.11 ± 2.2	1793.9 ± 2.2	–
309.4 K	1121.97 ± 2.2	1793.4 ± 2.2	–
309.65 K	1121.83 ± 2.2	1792.9 ± 2.2	–
309.9 K	1121.69 ± 2.2	1792.5 ± 2.2	–
310.15 K	1121.55 ± 2.2	1792 ± 2.2	12.78
310.4 K	1121.41 ± 2.2	1791.5 ± 2.2	–
310.65 K	1121.27 ± 2.2	1791 ± 2.2	–
310.91 K	1121.13 ± 2.2	1790.5 ± 2.2	–
311.16 K	1120.99 ± 2.2	1790 ± 2.2	–
311.4 K	1120.85 ± 2.2	1789.5 ± 2.2	–
311.65 K	1120.71 ± 2.2	1789 ± 2.2	–
311.91 K	1120.57 ± 2.2	1788.5 ± 2.2	–
312.16 K	1120.43 ± 2.2	1788 ± 2.2	–
312.41 K	1120.29 ± 2.2	1787.6 ± 2.2	–
312.66 K	1120.15 ± 2.2	1787.1 ± 2.2	–
312.91 K	1120.02 ± 2.2	1786.6 ± 2.2	–
313.15 K	–	–	11.4
313.16 K	1119.87 ± 2.2	1786.1 ± 2.2	–
313.4 K	1119.74 ± 2.2	1785.6 ± 2.2	–
313.66 K	1119.6 ± 2.2	1785.1 ± 2.2	–
313.9 K	1119.46 ± 2.2	1784.6 ± 2.2	–
314.15 K	1119.32 ± 2.2	1784.1 ± 2.2	–
314.4 K	1119.18 ± 2.2	1783.6 ± 2.2	–
314.65 K	1119.04 ± 2.2	1783.1 ± 2.2	–
314.9 K	1118.9 ± 2.2	1782.7 ± 2.2	–
315.15 K	1118.77 ± 2.2	1782.2 ± 2.2	10.56
315.41 K	1118.62 ± 2.2	1781.7 ± 2.2	–
315.65 K	1118.49 ± 2.2	1781.2 ± 2.2	–
315.91 K	1118.35 ± 2.2	1780.7 ± 2.2	–
316.16 K	1118.21 ± 2.2	1780.2 ± 2.2	–
316.41 K	1118.07 ± 2.2	1779.7 ± 2.2	–
316.66 K	1117.93 ± 2.2	1779.2 ± 2.2	–
316.91 K	1117.79 ± 2.2	1778.8 ± 2.2	–
317.16 K	1117.65 ± 2.2	1778.3 ± 2.2	–
317.4 K	1117.52 ± 2.2	1777.8 ± 2.2	–
317.65 K	–	–	9.7
317.66 K	1117.38 ± 2.2	1777.3 ± 2.2	–
317.91 K	1117.24 ± 2.2	1776.8 ± 2.2	–
318.16 K	1117.1 ± 2.2	1776.3 ± 2.2	–
318.41 K	1116.96 ± 2.2	1775.8 ± 2.2	–
318.65 K	1116.82 ± 2.2	1775.3 ± 2.2	–
318.9 K	1116.69 ± 2.2	1774.8 ± 2.2	–
319.16 K	1116.55 ± 2.2	1774.4 ± 2.2	–
319.41 K	1116.41 ± 2.2	1773.9 ± 2.2	–
319.65 K	1116.27 ± 2.2	1773.4 ± 2.2	–
319.91 K	1116.13 ± 2.2	1772.9 ± 2.2	–
320.16 K	1115.99 ± 2.2	1772.4 ± 2.2	–
320.41 K	1115.86 ± 2.2	1772 ± 2.2	–
320.65 K	1115.72 ± 2.2	1771.5 ± 2.2	9.07
320.91 K	1115.58 ± 2.2	1771 ± 2.2	–
321.15 K	1115.44 ± 2.2	1770.5 ± 2.2	–
321.41 K	1115.3 ± 2.2	1770 ± 2.2	–
321.66 K	1115.16 ± 2.2	1769.6 ± 2.2	–
321.9 K	1115.03 ± 2.2	1769.1 ± 2.2	–
322.15 K	1114.89 ± 2.2	1768.6 ± 2.2	–
322.41 K	1114.75 ± 2.2	1768.1 ± 2.2	–
322.65 K	1114.61 ± 2.2	1767.6 ± 2.2	–
322.91 K	1114.47 ± 2.2	1767.2 ± 2.2	–
323.15 K	–	–	8.38
323.16 K	1114.34 ± 2.2	1766.7 ± 2.2	–
323.41 K	1114.2 ± 2.2	1766.2 ± 2.2	–
323.65 K	1114.06 ± 2.2	1765.7 ± 2.2	–
323.91 K	1113.92 ± 2.2	1765.2 ± 2.2	–
324.16 K	1113.79 ± 2.2	1764.8 ± 2.2	–
324.41 K	1113.65 ± 2.2	1764.3 ± 2.2	–
324.65 K	1113.51 ± 2.2	1763.8 ± 2.2	–
324.9 K	1113.38 ± 2.2	1763.3 ± 2.2	–
325.16 K	1113.24 ± 2.2	1762.8 ± 2.2	–
325.4 K	1113.1 ± 2.2	1762.3 ± 2.2	–
325.66 K	1112.96 ± 2.2	1761.9 ± 2.2	–
325.9 K	1112.83 ± 2.2	1761.4 ± 2.2	–
326.16 K	1112.69 ± 2.2	1760.9 ± 2.2	–
326.41 K	1112.55 ± 2.2	1760.4 ± 2.2	–
326.66 K	1112.42 ± 2.2	1759.9 ± 2.2	–
326.9 K	1112.28 ± 2.2	1759.4 ± 2.2	–
327.16 K	1112.14 ± 2.2	1759 ± 2.2	–
327.4 K	1112.01 ± 2.2	1758.5 ± 2.2	–
327.66 K	1111.87 ± 2.2	1758 ± 2.2	–
327.9 K	1111.74 ± 2.2	1757.5 ± 2.2	–
328.15 K	1111.6 ± 2.2	1757 ± 2.2	–
328.41 K	1111.46 ± 2.2	1756.5 ± 2.2	–
328.66 K	1111.33 ± 2.2	1756 ± 2.2	–
328.9 K	1111.19 ± 2.2	1755.6 ± 2.2	–
329.16 K	1111.06 ± 2.2	1755.1 ± 2.2	–
329.4 K	1110.92 ± 2.2	1754.6 ± 2.2	–
329.65 K	1110.78 ± 2.2	1754.1 ± 2.2	–
329.9 K	1110.65 ± 2.2	1753.6 ± 2.2	–
330.16 K	1110.52 ± 2.2	1753.2 ± 2.2	–
330.41 K	1110.38 ± 2.2	1752.7 ± 2.2	–
330.66 K	1110.25 ± 2.2	1752.2 ± 2.2	–
330.91 K	1110.12 ± 2.2	1751.8 ± 2.2	–
331.16 K	1109.99 ± 2.2	1751.3 ± 2.2	–
331.41 K	1109.86 ± 2.2	1750.8 ± 2.2	–
331.66 K	1109.73 ± 2.2	1750.3 ± 2.2	–
331.91 K	1109.6 ± 2.2	1749.9 ± 2.2	–
332.16 K	1109.47 ± 2.2	1749.4 ± 2.2	–
332.41 K	1109.34 ± 2.2	1748.9 ± 2.2	–
332.66 K	1109.21 ± 2.2	1748.5 ± 2.2	–
332.91 K	1109.08 ± 2.2	1748 ± 2.2	–
333.16 K	1108.95 ± 2.2	1747.5 ± 2.2	–
333.41 K	1108.82 ± 2.2	1747.1 ± 2.2	–
333.66 K	1108.69 ± 2.2	1746.6 ± 2.2	–
333.91 K	1108.56 ± 2.2	1746.2 ± 2.2	–
334.16 K	1108.43 ± 2.2	1745.7 ± 2.2	–
334.41 K	1108.3 ± 2.2	1745.2 ± 2.2	–
334.66 K	1108.18 ± 2.2	1744.8 ± 2.2	–
334.91 K	1108.05 ± 2.2	1744.3 ± 2.2	–
335.16 K	1107.92 ± 2.2	1743.8 ± 2.2	–
335.41 K	1107.79 ± 2.2	1743.4 ± 2.2	–
335.66 K	1107.67 ± 2.2	1742.9 ± 2.2	–
335.91 K	1107.54 ± 2.2	1742.5 ± 2.2	–
336.16 K	1107.42 ± 2.2	1742 ± 2.2	–
336.41 K	1107.29 ± 2.2	1741.6 ± 2.2	–
336.66 K	1107.16 ± 2.2	1741.1 ± 2.2	–
336.9 K	1107.03 ± 2.2	1740.7 ± 2.2	–
337.16 K	1106.9 ± 2.2	1740.2 ± 2.2	–
337.4 K	1106.78 ± 2.2	1739.8 ± 2.2	–
337.66 K	1106.66 ± 2.2	1739.4 ± 2.2	–
337.9 K	1106.53 ± 2.2	1738.9 ± 2.2	–
338.15 K	1106.43 ± 2.2	1738.6 ± 2.2	–
